Tests used:
[1] = molecular target: T1, α5 subunit receptors (Homo sapiens, UniProt P18507+P31644); test: whole-cell voltage-clamp recordings of tonic inhibition current in human cortical L2/3 Pyr neurons; type: cell-based; parameters: Neocortical tissue resected during tumor resection and anterior temporal lobectomy; from tissue; host or cells: human neocortical slices (resected frontal/temporal lobe tissue), L2/3 pyramidal neurons
From the text: Electrophysiology Data. We used whole-cell voltage-clamp recordings of baseline tonic inhibition current and tonic inhibition current during exposure to α5-PAM in human cortical L2/3 Pyr neurons (10 cells: 9 cells from 3 male subjects, 1 cell from 1 subject) from patients undergoing a standard anterior temporal lobectomy or tumor resection from the frontal or temporal lobe. Written informed consent was obtained from all participants, in accordance with the Declaration of Helsinki and the University Health Network Research Ethics board.
The data was collected using surgery resection, solutions, tissue preparation, and recording equipment described in Chameh et al., 2021 Nature Communications, 12(1), 2497 and Yao et al., 2022 Cell Reports, 38(2). Neocortical tissue resected during tumor resection and anterior temporal lobectomy was immediately submerged in ice-cold (~4° C.) cutting solution and transferred to a recording chamber within 20 minutes.
For recordings, slices were transferred to a recording chamber mounted on a fixed-stage upright microscope (Axioskop 2 FS MOT; Carl Zeiss, Germany). Slices were continually perfused at 4 ml/min with standard aCSF at 32-34° C. Whole-cell patch-clamp recordings were obtained using a Multiclamp 700 A amplifier, Axopatch 200B amplifier, and pClamp 9.2 and pClamp 10.6 data acquisition software (Axon instruments, Molecular Devices, USA). Subsequently, electrical signals were digitized at 20 kHz using a 1320X digitizer. For voltage-clamp recordings of tonic current, low-resistance patch pipettes (2-4 MΩ) were filled with a CsCl-based solution containing (in mM) 140 CsCl, 10 EGTA, 10 Hepes, 2 MgCl2, 2 Na2ATP, 0.3 GTP, and 5 QX314 adjusted to pH 7.3 with CsOH. The junction potential was calculated to be 4.3 mV and the holding potential was-74.3 mV after junction potential correction. In this configuration, 5 μM GABA, 25 μM AP5, 10 μM CNQX, and 10 μM CGP-35348 were first applied to generate larger GABA-dependent currents and assess baseline tonic inhibition currents while also blocking AMPA, NMDA, and GABAB mediated currents. […]
Target sequence in this assay (P31644 32-462): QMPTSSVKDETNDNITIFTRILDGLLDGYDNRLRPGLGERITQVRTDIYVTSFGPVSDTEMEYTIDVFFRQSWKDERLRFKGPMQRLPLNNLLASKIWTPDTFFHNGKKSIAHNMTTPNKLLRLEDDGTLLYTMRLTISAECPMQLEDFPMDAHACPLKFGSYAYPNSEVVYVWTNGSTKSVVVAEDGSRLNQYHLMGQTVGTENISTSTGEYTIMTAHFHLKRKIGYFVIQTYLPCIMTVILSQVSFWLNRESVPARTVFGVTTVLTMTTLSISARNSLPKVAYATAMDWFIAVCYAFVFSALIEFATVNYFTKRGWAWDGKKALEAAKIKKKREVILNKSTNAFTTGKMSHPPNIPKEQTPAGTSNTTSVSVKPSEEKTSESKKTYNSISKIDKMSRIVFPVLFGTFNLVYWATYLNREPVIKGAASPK
Target sequence in this assay (P28472 26-473, further chain): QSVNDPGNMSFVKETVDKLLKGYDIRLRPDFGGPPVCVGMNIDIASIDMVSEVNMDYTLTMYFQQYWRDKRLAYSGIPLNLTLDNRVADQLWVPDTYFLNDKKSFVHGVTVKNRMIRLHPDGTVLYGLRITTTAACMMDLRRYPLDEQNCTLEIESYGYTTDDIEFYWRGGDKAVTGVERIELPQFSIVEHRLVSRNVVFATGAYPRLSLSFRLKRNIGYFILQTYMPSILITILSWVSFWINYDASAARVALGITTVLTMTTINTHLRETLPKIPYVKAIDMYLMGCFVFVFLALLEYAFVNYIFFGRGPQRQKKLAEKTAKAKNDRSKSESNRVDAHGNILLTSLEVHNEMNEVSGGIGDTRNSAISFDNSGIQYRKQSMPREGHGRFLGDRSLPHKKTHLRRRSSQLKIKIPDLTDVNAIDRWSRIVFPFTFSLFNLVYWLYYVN
Target sequence in this assay (P18507 40-467): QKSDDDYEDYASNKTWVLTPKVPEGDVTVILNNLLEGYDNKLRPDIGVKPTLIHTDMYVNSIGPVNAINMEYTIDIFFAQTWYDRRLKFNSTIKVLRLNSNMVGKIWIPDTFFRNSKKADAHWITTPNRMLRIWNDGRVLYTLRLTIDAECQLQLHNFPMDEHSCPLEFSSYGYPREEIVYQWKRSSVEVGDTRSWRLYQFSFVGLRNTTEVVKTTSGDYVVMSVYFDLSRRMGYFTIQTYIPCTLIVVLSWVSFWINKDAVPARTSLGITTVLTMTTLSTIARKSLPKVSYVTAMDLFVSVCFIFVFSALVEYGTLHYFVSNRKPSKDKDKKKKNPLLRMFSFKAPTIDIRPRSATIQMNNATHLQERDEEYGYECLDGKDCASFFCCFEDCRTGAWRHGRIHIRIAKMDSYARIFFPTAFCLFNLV

[2] = molecular target: T1, α5 subunit receptors; conditions: 3 μM; higher levels more strongly target α1, α2, & α3 subunit receptors; cited from earlier work
Target sequence in this assay (P28472 26-473): as the sequence (P28472 26-473, further chain) above
Target sequence in this assay (P18507 40-467): as the sequence (P18507 40-467) above
Target sequence in this assay (P31644 32-462): as the sequence (P31644 32-462) above

[3] = system: chronically stressed mice; conditions: mouse, in vivo; cited from earlier work

Q: With `C#Cc1ccc2c(c1)C(c1ccccc1F)=N[C@H](C)c1c(C(=O)N(C)C)ncn1-2` [α5-PAM, GL-II-73] as the compound, how does the “mean amplitude of tonic inhibitory current relative to endogenous current in picrotoxin condition” value ([1]; 3 μM with 5 μM GABA, ± standard error of the mean, n=10 cells, baseline 65.86±10.28) read?
A: Its value is 95.28±14.52 pA.

Q: What about the “tonic inhibition current magnitude” value ([1]; therapeutically relevant dose (3 μM) of α5-PAM in addition to GABA, mean±standard deviation, GABA alone −65.9±30.8) of the same compound?
A: Its value is −95.3±43.6 pA.

Q: What about the “increase in current magnitude” value ([1]; α5-PAM in addition to GABA vs GABA alone) of the same compound?
A: The value was 52%.

Q: And the subunit selectivity [2]?
A: Its subunit selectivity is “selectively targeting α5 subunit receptors”.

Q: And the “effect in chronically stressed mice” value [3]?
A: Its value is “pro-cognitive effects”.

Source: US20260253701A1, “EEG BIOMARKERS FOR ALPHA5 PAM DOSAGE DETERMINATION AND THERAPEUTIC MONITORING” (priority 2022, published 2026)
